Reference: patent US8697739B2, “Bicyclic acetyl-CoA carboxylase inhibitors and uses thereof” (Novartis AG, priority 2010, dated 2014)

Biological target: T1, human acetyl-CoA carboxylase 2 (ACC2) (Homo sapiens, UniProt O00763)
T1 construct: The cDNA encoding amino acids 144 to 2458 of human acetyl-CoA carboxylase 2; made in house; host or cells: Sf9 insect cells (baculovirus, pFastBac1)
Test: Acetyl-CoA carboxylase enzyme assay (malonyl-CoA formation by LC/MS/MS)
Assay type: biochemical
Settings: recombinant human ACC2 (aa 144-2458); read-out: IC50 ACC2
In short: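 Malonyl-CoA formation was read by LC/MS/MS MRM against a [13C3]-malonyl-CoA internal standard, after acetic acid quench. The enzyme was baculovirus/Sf9-expressed human ACC2 residues 144–2458, given 15 minutes room-temperature compound preincubation in HEPES pH 7.5 buffer with MgCl2, citrate and DTT. Substrate solution held 50 μM acetyl-CoA, 120 μM ATP and 2 mM KHCO3.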

T1 sequence (O00763 144-2458): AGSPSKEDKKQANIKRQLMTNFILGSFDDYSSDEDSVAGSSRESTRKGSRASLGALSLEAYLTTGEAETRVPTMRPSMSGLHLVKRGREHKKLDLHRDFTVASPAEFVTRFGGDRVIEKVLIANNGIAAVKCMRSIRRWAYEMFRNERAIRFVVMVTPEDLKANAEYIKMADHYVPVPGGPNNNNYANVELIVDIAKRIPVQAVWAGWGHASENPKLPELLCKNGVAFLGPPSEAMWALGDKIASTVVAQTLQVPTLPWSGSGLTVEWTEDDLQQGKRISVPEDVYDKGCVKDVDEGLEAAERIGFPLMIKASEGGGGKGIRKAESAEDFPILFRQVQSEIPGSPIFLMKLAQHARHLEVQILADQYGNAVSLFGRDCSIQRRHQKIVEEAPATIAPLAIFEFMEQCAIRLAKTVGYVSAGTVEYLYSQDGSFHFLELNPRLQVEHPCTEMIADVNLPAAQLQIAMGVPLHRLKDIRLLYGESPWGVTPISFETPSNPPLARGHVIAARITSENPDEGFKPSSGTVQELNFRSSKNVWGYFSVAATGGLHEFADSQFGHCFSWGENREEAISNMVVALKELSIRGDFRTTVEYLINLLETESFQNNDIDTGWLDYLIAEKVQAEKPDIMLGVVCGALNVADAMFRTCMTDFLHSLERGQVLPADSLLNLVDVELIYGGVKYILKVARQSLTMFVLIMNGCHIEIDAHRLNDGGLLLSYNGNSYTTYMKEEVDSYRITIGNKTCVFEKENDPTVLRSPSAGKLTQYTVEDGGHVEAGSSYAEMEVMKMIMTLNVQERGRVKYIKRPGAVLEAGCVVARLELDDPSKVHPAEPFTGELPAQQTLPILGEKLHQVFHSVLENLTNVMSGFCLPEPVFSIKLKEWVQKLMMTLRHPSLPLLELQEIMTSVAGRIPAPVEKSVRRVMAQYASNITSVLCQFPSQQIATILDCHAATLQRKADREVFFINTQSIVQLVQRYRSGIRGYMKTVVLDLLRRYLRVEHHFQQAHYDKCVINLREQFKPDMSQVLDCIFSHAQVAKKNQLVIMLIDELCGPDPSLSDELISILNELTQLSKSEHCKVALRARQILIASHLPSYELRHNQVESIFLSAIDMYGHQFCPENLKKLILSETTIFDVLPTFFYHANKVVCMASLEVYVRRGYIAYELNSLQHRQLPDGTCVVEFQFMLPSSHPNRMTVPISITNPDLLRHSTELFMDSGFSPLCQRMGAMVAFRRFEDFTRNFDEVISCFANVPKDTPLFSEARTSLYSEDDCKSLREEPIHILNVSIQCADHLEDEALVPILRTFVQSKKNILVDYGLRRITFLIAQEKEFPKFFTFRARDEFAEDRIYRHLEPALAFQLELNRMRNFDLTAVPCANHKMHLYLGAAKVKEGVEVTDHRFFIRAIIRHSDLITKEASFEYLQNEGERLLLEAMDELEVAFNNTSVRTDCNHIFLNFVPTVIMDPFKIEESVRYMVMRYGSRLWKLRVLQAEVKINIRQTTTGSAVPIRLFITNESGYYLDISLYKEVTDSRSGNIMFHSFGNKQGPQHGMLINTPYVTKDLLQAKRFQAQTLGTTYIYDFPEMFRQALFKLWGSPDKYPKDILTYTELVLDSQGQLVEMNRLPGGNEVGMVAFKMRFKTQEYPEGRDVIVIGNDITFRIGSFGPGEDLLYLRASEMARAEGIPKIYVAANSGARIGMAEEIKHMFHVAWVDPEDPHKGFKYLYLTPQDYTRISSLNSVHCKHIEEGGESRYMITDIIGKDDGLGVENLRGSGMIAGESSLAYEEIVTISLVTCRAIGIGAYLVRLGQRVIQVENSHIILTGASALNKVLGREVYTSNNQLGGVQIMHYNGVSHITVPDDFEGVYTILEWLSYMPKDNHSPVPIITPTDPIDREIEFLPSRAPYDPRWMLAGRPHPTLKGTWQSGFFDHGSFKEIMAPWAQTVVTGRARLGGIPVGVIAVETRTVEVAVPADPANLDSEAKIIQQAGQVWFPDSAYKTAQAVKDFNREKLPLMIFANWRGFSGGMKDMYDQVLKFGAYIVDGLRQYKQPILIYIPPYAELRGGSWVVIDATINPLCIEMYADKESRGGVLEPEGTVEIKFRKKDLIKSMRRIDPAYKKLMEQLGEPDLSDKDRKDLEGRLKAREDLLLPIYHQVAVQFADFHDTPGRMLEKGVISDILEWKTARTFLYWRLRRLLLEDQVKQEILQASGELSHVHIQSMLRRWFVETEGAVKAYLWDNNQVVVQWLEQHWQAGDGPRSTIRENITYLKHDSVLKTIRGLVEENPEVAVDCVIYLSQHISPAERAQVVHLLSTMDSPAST

| Structure (SMILES) | IC50 |
| --- | --- |
| CCOc1ccc2cc(S(=O)(=O)N[C@H]3CC[C@H](C(=O)N[C@H](COC(=O)[C@@H](N)Cc4ccccc4)c4ccccc4)CC3)ccc2n1 [Example 273, (S)-((S)-2-((1r,4S)-4-(2-ethoxyquinoline-6-sulfonamido)cyclohexanecarboxamido)-2-phenylethyl) 2-amino-3-phenylpropanoate] | 39 nM |
| O=C(N[C@@H](c1ccccc1)C(F)(F)F)[C@H]1CC[C@H](NS(=O)(=O)c2ccc3[nH]c(-c4ccccc4)nc3c2)CC1 [Example 274, (1r,4S)-4-(2-phenyl-1H-benzo[d]imidazole-5-sulfonamido)-N-((S)-2,2,2-trifluoro-1-phenylethyl)cyclohexanecarboxamide] | 4030 nM |
| COC(=O)c1ccc(-c2nc3cc(S(=O)(=O)N[C@H]4CC[C@H](C(=O)N[C@H](C)c5ccccc5)CC4)ccc3[nH]2)cc1 [Example 275, methyl 4-(5-(N-((1R,4r)-4-((R)-1-phenylethylcarbamoyl)cyclohexyl)sulfamoyl)-1H-benzo[d]imidazol-2-yl)benzoate] | 18 nM |
| C[C@@H](NC(=O)[C@H]1CC[C@H](NS(=O)(=O)c2ccc3[nH]c(-c4ccc(F)cc4)nc3c2)CC1)c1ccccc1 [Example 276, (1r,4R)-4-(2-(4-fluorophenyl)-1H-benzo[d]imidazole-5-sulfonamido)-N-((R)-1-phenylethyl)cyclohexanecarboxamide] | < 10 nM |
| C[C@@H](NC(=O)[C@H]1CC[C@H](NS(=O)(=O)c2ccc3[nH]c(C4CC4)nc3c2)CC1)c1ccccc1 [Example 277, (1r,4R)-4-(2-cyclopropyl-1H-benzo[d]imidazole-5-sulfonamido)-N-((R)-1-phenylethyl)cyclohexanecarboxamide] | 80 nM |
| C[C@@H](NC(=O)[C@H]1CC[C@H](NS(=O)(=O)c2ccc3[nH]c(-c4ccc(C(=O)O)cc4)nc3c2)CC1)c1ccccc1 [Example 278, 4-(5-(N-((1R,4r)-4-((R)-1-phenylethylcarbamoyl)cyclohexyl)sulfamoyl)-1H-benzo[d]imidazol-2-yl)benzoic acid] | 66 nM |
| C[C@@H](NC(=O)[C@H]1CC[C@H](NS(=O)(=O)c2ccc3[nH]c(-c4cccc(C(=O)O)c4)nc3c2)CC1)c1ccccc1 [Example 279, 3-(5-(N-((1R,4r)-4-((R)-1-phenylethylcarbamoyl)cyclohexyl)sulfamoyl)-1H-benzo[d]imidazol-2-yl)benzoic acid] | 100 nM |
| C[C@@H](NC(=O)[C@H]1CC[C@H](NS(=O)(=O)c2ccc3[nH]c(-c4ccncc4)nc3c2)CC1)c1ccccc1 [Example 280, (1r,4R)-N-((R)-1-phenylethyl)-4-(2-(pyridin-4-yl)-1H-benzo[d]imidazole-5-sulfonamido)cyclohexanecarboxamide] | 12 nM |
| C[C@@H](NC(=O)[C@H]1CC[C@H](NS(=O)(=O)c2ccc3[nH]c(-c4cccnc4)nc3c2)CC1)c1ccccc1 [Example 281, (1r,4R)-N-((R)-1-phenylethyl)-4-(2-(pyridin-3-yl)-1H-benzo[d]imidazole-5-sulfonamido)cyclohexanecarboxamide] | 11 nM |
| C[C@@H](NC(=O)[C@H]1CC[C@H](NS(=O)(=O)c2ccc3cc(-c4ccccc4)[nH]c3c2)CC1)c1ccccc1 [Example 282, (1r,4R)-4-(2-phenyl-1H-indole-6-sulfonamido)-N-((R)-1-phenylethyl)cyclohexanecarboxamide] | 18 nM |
| CC(NC(=O)[C@H]1CC[C@H](NS(=O)(=O)c2ccc3[nH]c(-c4cccnc4)cc3c2)CC1)c1ccncc1 (stereo partly drawn) [Example 283, (1r,4r)-4-(2-(pyridin-3-yl)-1H-indole-5-sulfonamido)-N-(1-(pyridin-4-yl)ethyl)cyclohexanecarboxamide] | 256 nM |
| C[C@@H](NC(=O)[C@H]1CC[C@H](NS(=O)(=O)c2ccc3[nH]c(-c4cccnc4)cc3c2)CC1)c1ccccc1 [Example 284, (1r,4R)-N-((R)-1-phenylethyl)-4-(2-(pyridin-3-yl)-1H-indole-5-sulfonamido)cyclohexanecarboxamide] | 14 nM |
| C[C@@H](NC(=O)[C@H]1CC[C@H](NS(=O)(=O)c2ccc3[nH]c(-c4cccnc4)cc3c2)CC1)c1ccc(F)cc1 [Example 285, (1r,4R)-N-((R)-1-(4-fluorophenyl)ethyl)-4-(2-(pyridin-3-yl)-1H-indole-5-sulfonamido)cyclohexanecarboxamide] | 12 nM |
| CCC(C)NC(=O)[C@H]1CC[C@H](NS(=O)(=O)c2ccc3[nH]c(-c4cccnc4)cc3c2)CC1 (stereo partly drawn) [Example 286, (1r,4r)-N-sec-butyl-4-(2-(pyridin-3-yl)-1H-indole-5-sulfonamido)cyclohexanecarboxamide] | 342 nM |
| CCC(C)NC(=O)[C@H]1CC[C@H](NS(=O)(=O)c2ccc3[nH]c(-c4cccnc4)cc3c2)CC1 (stereo partly drawn) [Example 287, (1r,4R)-N-sec-butyl-4-(2-(pyridin-3-yl)-1H-indole-5-sulfonamido)cyclohexanecarboxamide] | 196 nM |
| CC(C)N(C)C(=O)[C@H]1CC[C@H](NS(=O)(=O)c2ccc3[nH]c(-c4cccnc4)cc3c2)CC1 [Example 288, (1r,4r)-N-isopropyl-N-methyl-4-(2-(pyridin-3-yl)-1H-indole-5-sulfonamido)cyclohexanecarboxamide] | 400 nM |
| CC(C)[C@@H](C)NC(=O)[C@H]1CC[C@H](NS(=O)(=O)c2ccc3[nH]c(-c4cccnc4)cc3c2)CC1 [Example 289, (1r,4R)-N-((R)-3-methylbutan-2-yl)-4-(2-(pyridin-3-yl)-1H-indole-5-sulfonamido)cyclohexanecarboxamide] | 234 nM |
| C[C@@H](NC(=O)[C@H]1CC[C@H](NS(=O)(=O)c2ccc3cc(C4CC4)[nH]c3c2)CC1)c1ccc(F)cc1 [Example 290, (1r,4R)-4-(2-cyclopropyl-1H-indole-6-sulfonamido)-N-((R)-1-(4-fluorophenyl)ethyl)cyclohexanecarboxamide] | 28 nM |
| C[C@@H](NC(=O)[C@H]1CC[C@H](NS(=O)(=O)c2ccc3cc(-c4ccccc4Cl)[nH]c3c2)CC1)c1ccc(F)cc1 [Example 291, (1r,4R)-4-(2-(2-chlorophenyl)-1H-indole-6-sulfonamido)-N-((R)-1-(4-fluorophenyl)ethyl)cyclohexanecarboxamide] | 17 nM |
| Cc1ccccc1-c1cc2ccc(S(=O)(=O)N[C@H]3CC[C@H](C(=O)N[C@H](C)c4ccc(F)cc4)CC3)cc2[nH]1 [Example 292, (1r,4R)-N-((R)-1-(4-fluorophenyl)ethyl)-4-(2-o-tolyl-1H-indole-6-sulfonamido)cyclohexanecarboxamide] | 12 nM |
| COc1ccccc1-c1cc2ccc(S(=O)(=O)N[C@H]3CC[C@H](C(=O)N[C@H](C)c4ccc(F)cc4)CC3)cc2[nH]1 [Example 293] | 38 nM |
| C[C@@H](NC(=O)[C@H]1CC[C@H](NS(=O)(=O)c2ccc3cc(C4CC4)[nH]c3c2)CC1)c1ccccn1 [Example 294, (1r,4R)-4-(2-cyclopropyl-1H-indole-6-sulfonamido)-N-((R)-1-(pyridin-2-yl)ethyl)cyclohexanecarboxamide] | 279 nM |
| C[C@@H](NC(=O)[C@H]1CC[C@H](NS(=O)(=O)c2ccc3cc(-c4c(Cl)cccc4Cl)[nH]c3c2)CC1)c1ccc(F)cc1 [Example 295, (1r,4R)-4-(2-(2,6-dichlorophenyl)-1H-indole-6-sulfonamido)-N-((R)-1-(4-fluorophenyl)ethyl)cyclohexanecarboxamide] | 475 nM |
| C[C@@H](NC(=O)[C@H]1CC[C@H](NS(=O)(=O)c2ccc3cc(-c4ccc(CO)cc4)[nH]c3c2)CC1)c1ccc(F)cc1 [Example 296, (1r,4R)-N-((R)-1-(4-fluorophenyl)ethyl)-4-(2-(4-(hydroxymethyl)phenyl)-1H-indole-6-sulfonamido)cyclohexanecarboxamide] | < 10 nM |
| COc1ccc(-c2cc3ccc(S(=O)(=O)N[C@H]4CC[C@H](C(=O)N[C@H](C)c5ccc(F)cc5)CC4)cc3[nH]2)c(C)c1 [Example 297, (1r,4R)-N-((R)-1-(4-fluorophenyl)ethyl)-4-(2-(4-methoxy-2-methylphenyl)-1H-indole-6-sulfonamido)cyclohexanecarboxamide] | 17 nM |
| Cc1ccc(C)c(-c2cc3ccc(S(=O)(=O)N[C@H]4CC[C@H](C(=O)N[C@H](C)c5ccc(F)cc5)CC4)cc3[nH]2)c1 [Example 298, (1r,4R)-4-(2-(2,5-dimethylphenyl)-1H-indole-6-sulfonamido)-N-((R)-1-(4-fluorophenyl)ethyl)cyclohexanecarboxamide] | 24 nM |
| C[C@@H](NC(=O)[C@H]1CC[C@H](NS(=O)(=O)c2ccc3cc(-c4ccccc4CO)[nH]c3c2)CC1)c1ccc(F)cc1 [Example 299, (1r,4R)-N-((R)-1-(4-fluorophenyl)ethyl)-4-(2-(2-(hydroxymethyl)phenyl)-1H-indole-6-sulfonamido)cyclohexanecarboxamide] | 11 nM |
| COC(=O)c1ccc(-c2cc3ccc(S(=O)(=O)N[C@H]4CC[C@H](C(=O)N[C@H](C)c5ccc(F)cc5)CC4)cc3[nH]2)c(C)c1 [Example 300] | 10 nM |
| Cc1cc(C(=O)O)ccc1-c1cc2ccc(S(=O)(=O)N[C@H]3CC[C@H](C(=O)N[C@H](C)c4ccc(F)cc4)CC3)cc2[nH]1 [Example 301, 4-(6-(N-((1R,4r)-4-((R)-1-(4-fluorophenyl)ethylcarbamoyl)cyclohexyl)sulfamoyl)-1H-indol-2-yl)-3-methylbenzoic acid] | < 10 nM |
| Cc1cc(CO)ccc1-c1cc2ccc(S(=O)(=O)N[C@H]3CC[C@H](C(=O)N[C@H](C)c4ccc(F)cc4)CC3)cc2[nH]1 [Example 302, (1r,4R)-N-((R)-1-(4-fluorophenyl)ethyl)-4-(2-(4-(hydroxymethyl)-2-methylphenyl)-1H-indole-6-sulfonamido)cyclohexanecarboxamide] | < 10 nM |
